Source: PubChem BioAssay (NCI)
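48-hour exposure; five concentrations; linearly interpolated endpoints. Definition used: TGI = concentration required for complete inhibition of growth.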

Key:
Test in all cases: NCI anticancer screen, dose series, 48 h
HL-60(TB) leukemia = tested on: HL-60(TB) leukemia
MDA-MB-435 = tested on: MDA-MB-435
UACC-257 melanoma = tested on: UACC-257 melanoma
NCI-H23 lung = tested on: NCI-H23 lung
DU-145 prostate = tested on: DU-145 prostate
NCI-H460 lung = tested on: NCI-H460 lung
PC-3 prostate = tested on: PC-3 prostate
HCT-15 colon = tested on: HCT-15 colon
OVCAR-4 ovarian = tested on: OVCAR-4 ovarian
K-562 leukemia = tested on: K-562 leukemia
M14 melanoma = tested on: M14 melanoma
MDA-MB-231 breast = tested on: MDA-MB-231 breast
OVCAR-5 ovarian = tested on: OVCAR-5 ovarian
SK-MEL-2 melanoma = tested on: SK-MEL-2 melanoma
RXF 393 renal = tested on: RXF 393 renal
KM12 colon = tested on: KM12 colon
A549 NSCLC = tested on: A549 NSCLC

Compound | TGI (HL-60(TB) leukemia) | TGI (MDA-MB-435) | TGI (UACC-257 melanoma) | TGI (NCI-H23 lung) | TGI (DU-145 prostate) | TGI (NCI-H460 lung) | TGI (PC-3 prostate) | TGI (HCT-15 colon) | TGI (OVCAR-4 ovarian) | TGI (K-562 leukemia) | TGI (M14 melanoma) | TGI (MDA-MB-231 breast) | TGI (OVCAR-5 ovarian) | TGI (SK-MEL-2 melanoma) | TGI (RXF 393 renal) | TGI (KM12 colon) | TGI (A549 NSCLC)
CN(C)C(=S)/N=c1\ssc(=S)n1Cc1ccccc1 | 5.31 µM | 0.269 µM | > 56.2 µM | 24.8 µM | 21.7 µM | 22.6 µM | 35.5 µM | > 49.6 µM | 30.2 µM | 12.5 µM | 13 µM | 42.6 µM | > 63.1 µM | 9.67 µM | 1 µM | > 100 µM | 56 µM
COc1cc(-c2cc(-c3ccccc3)nc(-c3c(OC)ccc4c(C)cc(=O)oc34)c2)cc(OC)c1OC | > 100 µM | > 100 µM | > 100 µM | > 100 µM | > 100 µM | > 100 µM | > 100 µM | > 100 µM | > 100 µM | > 100 µM | > 100 µM | > 100 µM | – | > 100 µM | > 100 µM | > 100 µM | > 100 µM
O=S(=O)(O)C(=Nc1cccc(Cc2ccccc2)c1)Nc1cccc(Cc2ccccc2)c1 | 95.7 µM | 40.6 µM | 48.7 µM | 31.9 µM | 35.4 µM | – | 35.1 µM | 35.2 µM | 41 µM | > 100 µM | 31.8 µM | 38.2 µM | 33.7 µM | 44.6 µM | 33.3 µM | 31.5 µM | 51.9 µM
COC(=O)C1CN=CN1CCc1ccccc1 (centres undefined) | > 100 µM | > 100 µM | > 100 µM | > 100 µM | > 100 µM | > 100 µM | > 100 µM | > 100 µM | > 100 µM | > 100 µM | > 100 µM | > 100 µM | > 100 µM | > 100 µM | > 100 µM | > 100 µM | > 100 µM
O=C1NC(=S)N/C1=C\c1ccc(Br)s1 | > 100 µM | > 100 µM | > 100 µM | > 100 µM | > 100 µM | > 100 µM | > 100 µM | > 100 µM | > 100 µM | > 100 µM | – | > 100 µM | > 100 µM | > 100 µM | > 100 µM | > 100 µM | –
Brc1cc(CCOC2CCCCO2)c(-c2sccc2CCOC2CCCCO2)s1 (centres undefined) | 42.3 µM | > 100 µM | > 100 µM | > 100 µM | > 100 µM | > 100 µM | > 100 µM | > 100 µM | > 100 µM | > 31.6 µM | > 100 µM | > 100 µM | > 100 µM | 98.4 µM | 3 µM | > 100 µM | > 100 µM
CC(C)=CCC/C(=C/CC/C(=C\CCc1ccoc1)C(=O)O)C(=O)O | > 100 µM | > 100 µM | > 100 µM | > 100 µM | > 100 µM | – | > 100 µM | > 100 µM | > 100 µM | > 100 µM | > 100 µM | > 100 µM | > 100 µM | > 100 µM | > 100 µM | > 100 µM | > 100 µM
